Measured values reported in ChEMBL document CHEMBL3585240, “Synthesis and biological evaluation of caracasine acid derivatives” (Bioorg Med Chem, 2015).
Activity calls are given as the source filed them. The calls are words filed in the database; no cut-off is given here.

Tests used:
PC-3 [1] = test: Cytotoxicity against human PC3 cells assessed as growth inhibition after 72 hrs by MTT assay; type: functional, cell-based; conditions: PC-3, 72 h
MCF7 [2] = test: Cytotoxicity against human MCF7 cells assessed as growth inhibition after 72 hrs by MTT assay; type: functional, cell-based; conditions: MCF7, 72 h
Leishmania mexicana = test: Antileishmanial activity against promastigote stage of Leishmania mexicana Bel21 assessed as growth inhibition after 48 hrs by MTT assay; type: functional, organism-based; conditions: Bel21, 48 h
Trypanosoma cruzi = test: Antitrypanosomal activity against epimastigote stage of Trypanosoma cruzi CL Brener assessed as growth inhibition after 5 days by MTT assay; type: functional; conditions: 120 h
[3] = Cytotoxicity against human skin fibroblasts assessed as growth inhibition after 72 hrs by MTT assay; conditions: Skin fibroblast
PC-3 [4] = test: Selectivity index, ratio of IC50 for human skin fibroblasts to IC50 for human PC3 cells
MCF7 [5] = test: Selectivity index, ratio of IC50 for human skin fibroblasts to IC50 for human MCF7 cells
[6] = Selectivity index, ratio of IC50 for human skin fibroblasts to IC50 for promastigote stage of Leishmania mexicana Bel21
[7] = Selectivity index, ratio of IC50 for human skin fibroblasts to IC50 for epimastigote stage of Trypanosoma cruzi CL Brener
Bacillus cereus = test: Antibacterial activity against Bacillus cereus ATCC 14579 assessed as growth inhibition at 2 mg/ml after 24 hrs by disc agar diffusion method; type: functional; conditions: for zone of inhibition at 2000 µg/mL: ATCC 14579, 24 h, read-out: DIZ
Staphylococcus aureus = test: Antibacterial activity against Staphylococcus aureus ATCC 25923 assessed as growth inhibition at 2 mg/ml after 24 hrs by disc agar diffusion method; type: functional; conditions: for zone of inhibition at 2000 µg/mL: ATCC 25923, 24 h, read-out: DIZ
Escherichia coli = test: Antibacterial activity against Escherichia coli ATCC 35218 assessed as growth inhibition at 2 mg/ml after 24 hrs by disc agar diffusion method; type: functional; conditions: for zone of inhibition at 2000 µg/mL: ATCC 35218, 24 h, read-out: DIZ
Pseudomonas aeruginosa = test: Antibacterial activity against Pseudomonas aeruginosa ATCC 27853 assessed as growth inhibition at 2 mg/ml after 24 hrs by disc agar diffusion method; type: functional; conditions: for zone of inhibition at 2000 µg/mL: ATCC 27853, 24 h, read-out: DIZ

| SMILES | IC50 (Trypanosoma cruzi) | IC50 (PC-3 [1]) | IC50 (MCF7 [2]) | IC50 (Leishmania mexicana) | IC50 [3] | Ratio IC50 (PC-3 [4]) | Ratio IC50 (MCF7 [5]) | Ratio IC50 [6] | Ratio IC50 [7] | zone of inhibition at 2000 µg/mL (Bacillus cereus) | zone of inhibition at 2000 µg/mL (Staphylococcus aureus) | zone of inhibition at 2000 µg/mL (Escherichia coli) | zone of inhibition at 2000 µg/mL (Pseudomonas aeruginosa) | growth inhibition (GI) (Bacillus cereus) | growth inhibition (GI) (Staphylococcus aureus) | growth inhibition (GI) (Escherichia coli) | growth inhibition (GI) (Pseudomonas aeruginosa) |
| --- | --- | --- | --- | --- | --- | --- | --- | --- | --- | --- | --- | --- | --- | --- | --- | --- | --- |
| C=C(C)[C@H]1CC[C@@]23C[C@H](CC[C@H]2[C@]1(C)CCC(=O)O)C(CC#N)C3=O (stereo partly drawn) |  | > 138 µM | 144 µM | > 44 µM | 51.9 µM |  | 0.5 | <1.2 |  |  |  |  |  | inactive | inactive | inactive | inactive |
| C=C(C)[C@H]1CC[C@@]23C[C@H](CC[C@H]2[C@]1(C)CCC(=O)O)C(COCC)C3=O (stereo partly drawn) |  |  |  |  |  |  |  |  |  | 10 mm | 12 mm | 14 mm | 15 mm |  |  |  |  |
| C=C1C(O)[C@@]23CC[C@H](C(=C)C)[C@@](C)(CCC(=O)O)[C@@H]2CC[C@H]1C3 (stereo partly drawn) |  | 137 µM | 86.8 µM | > 30 µM | 207 µM | 1.5 | 2.4 | <6.9 |  | 15 mm | 12 mm | 12 mm | 20 mm |  |  |  |  |
| C=C1C(=O)[C@@]23CC[C@H](C(=C)C)[C@@](C)(CCC(=O)NC4CCCCC4)[C@@H]2CC[C@H]1C3 | 2.8 µM | 3.9 µM | 10 µM | 2 µM | 12 µM | 3.1 | 1.2 | 6 | 4.3 | 15 mm | 15 mm | 16 mm | 12 mm |  |  |  |  |
| C=C1C(=O)[C@@]23CC[C@H](C(C)(O)CO)[C@@](C)(CCC(=O)O)[C@@H]2CC[C@H]1C3 (stereo partly drawn) | 42.6 µM | 21.9 µM | 46.3 µM | 42.8 µM | 25.4 µM | 1.2 | 0.5 | 0.6 | 0.6 | 20 mm |  | 15 mm |  |  | inactive |  | inactive |
| C=C(C)[C@H]1CC[C@@]23C[C@H](CC[C@H]2[C@]1(C)CCC(=O)O)C(CSCc1ccccc1)C3=O (stereo partly drawn) | 39.3 µM |  |  | 22.1 µM | 42.7 µM |  |  | 1.9 | 1.1 | 20 mm | 22 mm | 25 mm | 15 mm |  |  |  |  |
| C=C(C)[C@H]1CC[C@@]23C[C@H](CC[C@H]2[C@]1(C)CCC(=O)OC)C(COC)C3=O (stereo partly drawn) |  |  |  |  |  |  |  |  |  | 12 mm | 13 mm | 15 mm | 15 mm |  |  |  |  |
| C=C1C(=O)[C@@]23CC[C@H](C4(C)CO4)[C@@](C)(CCC(=O)O)[C@@H]2CC[C@H]1C3 (stereo partly drawn) |  | 6.4 µM | 22.6 µM |  | 24.7 µM | 3.9 | 1.1 |  |  | 20 mm | 25 mm | 18 mm | 18 mm |  |  |  |  |
| C=C(C)[C@H]1CC[C@@]23C[C@H](CC[C@H]2[C@]1(C)CCC(=O)O)C(C)C3=O (stereo partly drawn) |  |  | 110 µM | > 47 µM | > 157 µM |  | >1.4 |  |  | 20 mm |  |  | 18 mm |  | inactive | inactive |  |
| C=C(C)[C@H]1CC[C@@]23C[C@H](CC[C@H]2[C@]1(C)CCC(=O)OC)C(CC(C#N)P(=O)(OCC)OCC)C3=O (stereo partly drawn) |  |  |  |  |  |  |  |  |  |  |  |  |  | inactive | inactive | inactive | inactive |

Second part, led by results:

| IC50 (Trypanosoma cruzi) | SMILES | IC50 (PC-3 [1]) | IC50 (MCF7 [2]) | IC50 (Leishmania mexicana) | IC50 [3] | Ratio IC50 (PC-3 [4]) | Ratio IC50 (MCF7 [5]) | Ratio IC50 [6] | Ratio IC50 [7] | zone of inhibition at 2000 µg/mL (Bacillus cereus) | zone of inhibition at 2000 µg/mL (Staphylococcus aureus) | zone of inhibition at 2000 µg/mL (Escherichia coli) | zone of inhibition at 2000 µg/mL (Pseudomonas aeruginosa) | growth inhibition (GI) (Bacillus cereus) | growth inhibition (GI) (Staphylococcus aureus) | growth inhibition (GI) (Escherichia coli) | growth inhibition (GI) (Pseudomonas aeruginosa) |
| --- | --- | --- | --- | --- | --- | --- | --- | --- | --- | --- | --- | --- | --- | --- | --- | --- | --- |
| 16.5 µM | C=C1C(=O)[C@@]23CC[C@H](C(=C)C)[C@@](C)(CCC(=O)OC)[C@@H]2CC[C@H]1C3 | 3.6 µM | 11.2 µM | 3.4 µM | 11.3 µM | 3.1 | 1 | 3.3 | 0.7 | 22 mm | 12 mm | 15 mm | 15 mm |  |  |  |  |
| 4.1 µM | C=C1C(=O)[C@@]23CC[C@H](C(=C)C)[C@@](C)(CCC(=O)OCc4ccccc4)[C@@H]2CC[C@H]1C3 | 5.5 µM | 3.7 µM | 1 µM | 3.1 µM | 0.6 | 0.8 | 3.1 | 0.8 | 24 mm | 15 mm | 22 mm | 15 mm |  |  |  |  |
| 2.7 µM | C=C1C(=O)[C@@]23CC[C@H](C(=C)C)[C@@](C)(CCC(=O)OCC)[C@@H]2CC[C@H]1C3 | 4.4 µM | 5.1 µM | 1.6 µM | 3.7 µM | 0.8 | 0.7 | 2.3 | 1.4 |  |  |  |  | inactive | inactive | inactive | inactive |
| 5.5 µM | C=C1C(=O)[C@@]23CC[C@H](C(=C)C)[C@@](C)(CCC(=O)OC4CCCCC4)[C@@H]2CC[C@H]1C3 | 1.9 µM | 2.1 µM | 1.2 µM | < 3.9 µM | 2.1 | 1.9 | <3.3 | <0.7 | 12 mm | 30 mm | 28 mm | 30 mm |  |  |  |  |
| 22.3 µM | C=C1C(=O)[C@@]23CC[C@H](C(=C)C)[C@@](C)(CCC(=O)O)[C@@H]2CC[C@H]1C3 | 7.9 µM | 15.8 µM | 30.8 µM | 39.7 µM | 5 | 2.5 | 1.3 | 1.8 | 22 mm | 24 mm | 22 mm | 30 mm |  |  |  |  |
| 4.2 µM | C=C1C(=O)[C@@]23CC[C@H](C(=C)C)[C@@](C)(CCC(=O)OCCCC)[C@@H]2CC[C@H]1C3 | 4.7 µM | 5.6 µM | 1.2 µM | 7 µM | 1.5 | 1.3 | 5.8 | 1.7 |  |  |  |  | inactive | inactive | inactive | inactive |
